Results taken from publication PMC11474028, “Lipopeptide antibiotics disrupt interactions of undecaprenyl phosphate with UptA” (Proceedings of the National Academy of Sciences of the …, 2024).
Entries after “also recorded” stand apart in the source; their conditions may differ.

Molecular target: UptA (Bacillus subtilis, UniProt O31823)
Test: biochemical
Format: binding
Protocol: We explored the binding affinity of UptA toward C55-P by recording mass spectra for solutions containing 2.5 µM UptA and 0 to 40 µM C55-P in 200 mM ammonium acetate, 0.05% LDAO at pH 8.0. […] Further increase in the concentration of C55-P enhanced the intensity of the UptA:C55-P complex, together with the emergence of additional binding events (Fig. 2A). We deconvoluted the spectra ([34]) to extract mean relative intensities of bound and unbound forms of UptA in the spectral series.
To investigate the binding selectivity of UptA for monophosphate (C55-P) versus diphosphate (C55-PP) forms of the lipid carrier, we performed comparative binding assays. First, we recorded mass spectra for a mixture of UptA with increasing concentrations of C55-PP (SI Appendix, Fig. S3). […] We then fit the data to Hill equation to obtain an apparent Kd for this system.
UptA is a member of the DedA family of transporters whose cellular functions are potentially driven by proton-motive force and provide conditional fitness to bacteria under alkaline conditions ([25], [26], [36]). […] To this end, we equilibrated C55-P with UptA at a protein/ligand molar ratio of 1:4 in a buffer of the same composition but at pH 8.0 and 5.0. […] As a negative control, we tested for pH sensitivity of C55-P binding to MraY, the latter being the downstream enzyme in the peptidoglycan pathway that couples UM5 to C55-P. To this end, we equilibrated MraY and C55-P at a molar ratio of 1:4 in a buffer of pH 8.0 and pH 5.0.
Next, we investigated the chain length selectivity of UptA by testing its interaction with geranylgeranyl phosphate (C20-P), hexaprenyl phosphate (C30-P), and C55-P; the latter representing the native form of the lipid carrier in the model organisms B. subtilis and E. coli ([39]). For this experiment, we incubated 4 µM UptA with a 10-fold molar excess of C20-P, C30-P, and C55-P at pH 8.0 and recorded spectra under the same conditions. […] The length and stereochemistry of lipid tails can influence their interactions with membrane proteins ([40]).
Detailed experimental procedures are provided in SI Appendix. Briefly, UptA (wild type and mutants) was expressed in E. coli C43(DE3) cells (Lucigen) with GFP fusion on the C-terminus and solubilized from the membrane fraction by n-dodecyl-β-D-maltopyranoside (DDM). After purification by affinity chromatography, the GFP was cleaved by TEV protease and removed, and UptA was further purified by size-exclusion chromatography in a buffer containing 20 mM Tris-HCl (pH 8.0), 200 mM NaCl, 0.02% DDM. Before measurements, proteins were buffer-exchanged into 0.05% LDAO, 200 mM ammonium acetate at the desired pH using a centrifugal buffer exchange device (Micro Bio-Spin 6, Bio-Rad). Stock solutions of lipids were prepared from chloroform/methanol solution by evaporating aliquots of known volume in a SpeedVac. After drying, the lipid films were weighed and resuspended to a final concentration of 0.5 mM in 200 mM ammonium acetate and 0.05% LDAO by vertexing.

UptA, sequence (O31823 whole entry): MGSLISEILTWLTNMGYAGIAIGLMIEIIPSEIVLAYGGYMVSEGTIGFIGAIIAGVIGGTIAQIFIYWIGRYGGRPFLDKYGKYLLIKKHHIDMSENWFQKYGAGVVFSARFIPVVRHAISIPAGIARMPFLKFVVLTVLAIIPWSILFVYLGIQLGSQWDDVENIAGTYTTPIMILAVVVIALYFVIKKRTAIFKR

CC(C)=CCC/C(C)=C/CC/C(C)=C/CC/C(C)=C\CC/C(C)=C\CC/C(C)=C\CC/C(C)=C\CC/C(C)=C\CC/C(C)=C\CC/C(C)=C\CC/C(C)=C\COP(=O)(O)O [C55-P, undecaprenyl phosphate] was tested, and the “protein/ligand molar ratio at which relative intensity of first binding event plateaued” value (2.5 µM UptA, 0 to 40 µM C55-P, pH 8.0, 0.05% LDAO) was ~ 4, the “binding to UptA by lipid chain length (in words)” value (4 µM UptA, 10-fold molar excess (40 µM) of lipid, pH 8.0, 200 mM ammonium acetate, 0.05% LDAO) was “highest intensity of protein/ligand complexes; also recorded: more favorably than C55-PP, C30-P, and C20-P” and the “binding to UptA, equimolar mixture (in words)” value (equimolar UptA and C55-P, 200 mM ammonium acetate, 0.05% LDAO, pH 8.0) was “high-affinity binding interactions”. For the same compound, the Kd (native MS, 2.5 µM UptA, 0 to 40 µM C55-P, 200 mM ammonium acetate, 0.05% LDAO, pH 8.0, Hill equation fit to mean relative intensities of three replicates, 95% CI: C55-P 5.0 to 6.4 µM, C55-PP 9.5 to 32.8 µM, read-out: apparent Kd for the binding of one ligand molecule (1×) to UptA) was 5.7 µM, the “selectivity of UptA for C55-P versus C55-PP (in words)” value (native MS, 200 mM ammonium acetate, pH 8, 0.05% LDAO) was “UptA is more selective toward C55-P than C55-PP” and the “pH sensitivity of C55-P binding to UptA (in words)” value (pH 8.0 vs pH 5.0) was “environmental pH modulates the interaction of C55-P with UptA; also recorded: less C55-P binding to UptA in the presence of excess H^+”. For the same compound, the “number of C55-P molecules in complex with UptA dimer” value (protein/ligand molar ratio 1:4, pH 8.0) was “up to two”, the “factor by which ligand-bound UptA peaks are more intense at pH 8.0 compared to pH 5.0” value (protein/ligand molar ratio 1:4, pH 8.0 vs pH 5.0, 200 mM ammonium acetate, 0.05% LDAO) was 3 and the “C55-P binding to UptA dimer versus monomer (in words)” value (wild type, protein/ligand molar ratio 1:4, pH 8.0) was “dimer interacts more favorably with C55-P than the monomer UptA”.
